Assay results published in patent US20260124309A1, “STAT6 DEGRADERS AND USES THEREOF” (Kymera Therapeutics, Inc., priority 2023, published 2026).
pIC50: −log10 of the molar value.

What was measured:
[1] = biological target: T1, biotinylated truncated STAT6 (123-632)-avi (Homo sapiens, UniProt P42226); assay: STAT6 HTRF binding assay; conditions: 0.15 nM biotinylated truncated STAT6 (123-632)-avi, 20 nM fluorescein-labeled probe
T1 construct: biotinylated truncated STAT6 (123-632)-avi purified from E. coli; made in house; host or cells: E. coli
T1 sequence (P42226 123-632 limits assumed): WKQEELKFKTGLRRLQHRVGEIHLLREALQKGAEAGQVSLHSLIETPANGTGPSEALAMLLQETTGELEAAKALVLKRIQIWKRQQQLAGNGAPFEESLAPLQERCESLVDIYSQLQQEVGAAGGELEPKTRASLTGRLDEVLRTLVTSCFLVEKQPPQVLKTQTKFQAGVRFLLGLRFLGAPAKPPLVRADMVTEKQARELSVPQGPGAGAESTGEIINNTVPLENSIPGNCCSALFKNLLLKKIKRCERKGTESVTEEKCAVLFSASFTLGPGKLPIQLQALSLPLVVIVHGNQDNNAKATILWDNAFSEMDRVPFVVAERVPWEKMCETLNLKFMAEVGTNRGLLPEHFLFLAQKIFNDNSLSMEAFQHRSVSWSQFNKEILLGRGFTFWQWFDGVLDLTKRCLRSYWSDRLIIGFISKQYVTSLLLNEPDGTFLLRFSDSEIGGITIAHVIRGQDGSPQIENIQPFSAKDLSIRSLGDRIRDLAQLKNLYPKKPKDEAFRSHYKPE
Protocol: HTRF binding assays were performed using 0.15 nM biotinylated truncated STAT6 (123-632)-avi purified from E. coli, 1× Streptavidin-terbium (CisBio) prepared by mixing SA-Tb in PPI detection buffer (CisBio), 20 nM proprietary fluorescein-labeled probe, and test compounds in assay buffer consisting of 50 mM HEPES-Na pH 7.5, 100 mM NaCl, 1 mM EDTA, 2 mM DTT, 0.1% Tween-20 with a final volume of 20 uL. Compound stocks were dissolved at 10 mM in 100% DMSO and 11 point titration with 3 fold serial dilution was performed in white, opaque 384 well microplates. Reaction plates were incubated at room temperature for 30 minutes. Plates were centrifuged at low rpm for 5 mins, and the ratio of fluorescence intensities were measured at emission wavelengths for fluorescein acceptor (520 nm) and terbium donor (495 nm) on Envision Plate reader. % Inhibition was calculated from the 520/495 ratio generated by using proprietary positive control compound for 100% inhibition and DMSO only reactions for 0% inhibition. Data was processed and dose response curves were generated using GraphPad Prism to determine the concentration required for inhibiting 50% of the HTRF signal (IC50).
The letter codes for IC50 (μM) include: A (<0.1 μM); B (0.1-1 μM); C (>1-10 μM); D (>10-100 μM); E (>100 μM); and F (not tested).

STAT6 = biological target: T2, STAT6 (Homo sapiens, UniProt P42226); assay: STAT6 MSD degradation in A549 cells; format: cell-based; conditions: 24 h
T2 construct: endogenous in cells; host or cells: A549
T2 sequence (P42226 1-847): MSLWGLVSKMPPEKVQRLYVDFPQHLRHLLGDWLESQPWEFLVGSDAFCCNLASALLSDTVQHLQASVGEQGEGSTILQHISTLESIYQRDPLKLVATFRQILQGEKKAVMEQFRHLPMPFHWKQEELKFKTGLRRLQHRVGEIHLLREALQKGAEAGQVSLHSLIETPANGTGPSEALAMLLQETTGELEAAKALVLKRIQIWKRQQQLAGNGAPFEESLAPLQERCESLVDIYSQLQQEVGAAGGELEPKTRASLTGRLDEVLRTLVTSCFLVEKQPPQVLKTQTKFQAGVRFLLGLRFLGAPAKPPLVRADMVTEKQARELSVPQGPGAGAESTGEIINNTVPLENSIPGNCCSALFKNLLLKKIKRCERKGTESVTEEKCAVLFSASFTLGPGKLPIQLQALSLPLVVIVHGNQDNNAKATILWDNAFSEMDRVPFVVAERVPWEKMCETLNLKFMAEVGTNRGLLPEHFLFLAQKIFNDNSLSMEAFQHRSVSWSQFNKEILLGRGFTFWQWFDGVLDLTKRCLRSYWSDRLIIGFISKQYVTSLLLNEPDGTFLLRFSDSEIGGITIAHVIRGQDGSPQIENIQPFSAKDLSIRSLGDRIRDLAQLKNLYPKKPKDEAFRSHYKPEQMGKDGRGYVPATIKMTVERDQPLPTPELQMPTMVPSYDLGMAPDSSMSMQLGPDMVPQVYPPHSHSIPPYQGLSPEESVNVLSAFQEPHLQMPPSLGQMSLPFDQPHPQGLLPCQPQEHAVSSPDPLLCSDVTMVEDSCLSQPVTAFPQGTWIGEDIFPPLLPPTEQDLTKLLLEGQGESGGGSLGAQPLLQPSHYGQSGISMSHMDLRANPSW
Protocol: Degradation of STAT6 in cells was quantitatively measured using Meso Scale Discovery (MSD) technology. A549 cells were seeded in 96-well plates with a density of 1.5×10e4 to 5×10e5 cells per well in 100 μl fresh media. Compounds were then added to the assay plates with a final top concentration of up to 10 uM in a 1:3 dilution series with total of 9 doses. The assay plates were then incubated for 4 to 24 hours at 37° C. under 5% CO2. The assay plates were then centrifuged for 5 minutes and the cell pellets were treated with 100 μl/well RIPA lysis buffer (Boston Bioproducts, BP-115D) with protease and phosphatase inhibitors (Roche, 05892791001 and 04906837001). To prepare the MSD assay plates (MSD, L15XA), the plates were coated with the capture antibody (Abnova, H00006778) in PBS, at 40 μl/well. The plates were then incubated overnight at 4° C., washed 1 time with 150 μl/well TBST buffer (Cell Signaling Technology, #9997S) and blocked with 150 μl/well blocking buffer (MSD, R93BA-4). Cell lysates were then added to MSD assay plates and the plates were incubated at room temperature for 1 hour. The plates were then washed 3 times with 150 μl/well TBST buffer and 25 μl/well primary detection antibody (Cell Signaling Technology, #5397S). The assay plates were then incubated at room temperature for 1 hour, washed 3 times with 150 μl/well TBST buffer, and 25 μl/well secondary detection antibody, SULFO-TAG anti-rabbit antibody (MSD, R32AB-1) were added. The assay plates were then incubated at room temperature for 1 hour, washed 3 times with 150 μl/well TBST buffer, and 150 μl/well MSD reading buffer (MSD, R92TC-2) were added. The plates were then analyzed by an MSD reader. The data was analyzed by GraphPad Prism and the dose dependent STAT6 degradation was fit using the four-parameter inhibitor vs. response nonlinear regression.
The letter codes for DC50 (nM) include: A (<1 nM); B (1-10 nM); C (>10-100 nM); D (>100-1000 nM); E (>1000 nM); and F (not tested). The letter codes for Dmax (oo) include: A (>90%); B (>70-90%); C (>50-70%); D ([…]); and F (not tested).

| Compound | pIC50 ([1]; HTRF binding) | DC50 (STAT6) [nM] | Dmax (STAT6) [%] | pIC50 ([1]; 30 minutes at room temperature) |
| --- | --- | --- | --- | --- |
| COc1cc(N2CCN(c3ccc(-c4cc(C5=CCCN(C(=O)CCn6cccn6)C5)c(F)c5[nH]c(C(=O)N(C)C)cc45)c(F)c3F)CC2)c(F)cc1N[C@@H]1CCC(=O)NC1=O (single isomer, unassigned) [Example I-744] | > 7.00 | < 1 | > 90 |  |
| COc1cc(N2CCN(c3ccc(-c4cc(C5=CCCN(C(=O)CCn6cccn6)C5)c(F)c5[nH]c(C(=O)N(C)C)cc45)c(F)c3F)CC2)c(F)cc1N[C@H]1CCC(=O)NC1=O (single isomer, unassigned) [Example I-745] | > 7.00 | < 1 | > 90 |  |
| COc1cc(N2CCC(c3ccc(-c4cc(C5=CCCN(C(=O)CCn6cccn6)C5)c(F)c5[nH]c(C(=O)N(C)C)cc45)c(OC(F)(F)F)c3)CC2)c(F)cc1N[C@H]1CCC(=O)NC1=O (single isomer, unassigned) [Example I-793] | > 7.00 | 1 to 10 | 70 to 90 |  |
| Cc1cc(C2CCN(c3cccc4c3n(C)c(=O)n4C3CCC(=O)NC3=O)CC2)ccc1-c1cc(C2=CCCN(C(=O)C(C)C)C2)c(F)c2[nH]c(C(=O)N(C)C)cc12 (stereo not drawn) [Example I-566] | 5.00 to 6.00 | < 1 | > 90 |  |
| CN(C)C(=O)c1cc2c(F)c(C3CCCN(C(=O)CCn4cccn4)C3)cc(-c3ccc(N4CCN(CCc5ccc(C6CCC(=O)NC6=O)c(Cl)c5)CC4)cc3)c2o1 (single isomer, unassigned) [Example I-281] |  | 10 to 100 | 70 to 90 | 6.00 to 7.00 |
| COc1cc(N2CCC(c3ccc(-c4cc(C5=CCCN(C(=O)CCn6cccn6)C5)c(F)c5[nH]c(C(=O)N(C)C)cc45)c(OC(F)(F)F)c3)CC2)c(F)cc1N[C@@H]1CCC(=O)NC1=O (single isomer, unassigned) [Example I-792] | > 7.00 | 1 to 10 | 70 to 90 |  |
| Cc1cc(C2CCN(c3cccc4c3n(C)c(=O)n4[C@@H]3CCC(=O)NC3=O)CC2)ccc1-c1cc(C2=CCCN(C(=O)C(C)C)C2)c(F)c2[nH]c(C(=O)N(C)C)cc12 (single isomer, unassigned) [Example I-790] | 5.00 to 6.00 | 1 to 10 | > 90 |  |
| CN(C)C(=O)c1cc2c(-c3ccc(C4CCN(c5ccc([C@H]6CCC(=O)NC6=O)cc5F)CC4)cc3)cc(C3=CCCN(C(=O)CCn4cccn4)C3)c(F)c2[nH]1 (single isomer, unassigned) [Example I-743] | > 7.00 | < 1 | > 90 |  |
| COc1cc(N2CCN(c3ccc(-c4cc(C5=CCCN(C(=O)CCn6cccn6)C5)c(F)c5[nH]c(C(=O)N(C)C)cc45)cc3)CC2)c(F)cc1N[C@H]1CCC(=O)NC1=O (single isomer, unassigned) [Example I-795] | > 7.00 | < 1 | > 90 |  |
| CN(C)C(=O)c1cc2c(-c3ccc(C4CCN(c5ccc([C@@H]6CCC(=O)NC6=O)cc5F)CC4)cc3)cc(C3=CCCN(C(=O)CCn4cccn4)C3)c(F)c2[nH]1 (single isomer, unassigned) [Example I-742] | > 7.00 | < 1 | > 90 |  |
| CC(=O)N1CCC=C(c2cc(-c3ccc(C4CCN(c5cccc6c5n(C)c(=O)n6C5CCC(=O)NC5=O)CC4)cc3C)c3cc(C(=O)N(C)C)[nH]c3c2F)C1 (stereo not drawn) [Example I-455, 6-(1-Acetyl-1,2,5,6-tetrahydropyridin-3-yl)-4-(4-(1-(1-(2,6-dioxopiperidin-3-yl)-3-methyl-2-oxo-2,3-dihydro-1H-benzo[d]1734midazole-4-yl)piperidin-4-yl)-2-methylphenyl)-7-fluoro-N,N-dim ethyl-1H-indole-2-carboxamide] | 5.00 to 6.00 | < 1 | > 90 |  |
| CN(C)C(=O)c1cc2c(-c3ccc(C4CCN(c5ccc(N[C@H]6CCC(=O)NC6=O)cc5F)CC4)cc3)cc(C3=CCCN(C(=O)CCn4cccn4)C3)c(F)c2[nH]1 (single isomer, unassigned) [Example I-796] | > 7.00 | < 1 | 70 to 90 |  |
| COc1cc(N2CCN(c3ccc(-c4cc(C5=CCCN(C(=O)CCn6cccn6)C5)c(F)c5[nH]c(C(=O)N(C)C)cc45)cc3)CC2)c(F)cc1N[C@@H]1CCC(=O)NC1=O (single isomer, unassigned) [Example I-794] |  | < 1 | 70 to 90 |  |
| COc1cc(N2CCN(CCOCC3CCN(c4ccnc(N5CC[C@@H]6[C@H]5CCCN6c5cccc(F)c5)c4)CC3)CC2)ccc1-c1cc(C2=CCCN(C(=O)CCn3ccnn3)C2)c(F)c2[nH]c(C(=O)N(C)C)cc12 [Example I-1049, 4-[4-(4-{2-[(1-{2-[(3aR,7aR)-4-(3-fluorophenyl)-hexahydro-2H-pyrrolo[3,2-b]pyridin-1-yl]pyridin-4-yl}piperidin-4-yl)methoxy]ethyl}piperazin-1-yl)-2-methoxyphenyl]-7-fluoro-N,N-dimethyl-6-{1-[3-(1,2,3-triazol-1-yl)propanoyl]-5,6-dihydro-2H-pyridin-3-yl}-1H-indole-2-carboxamide] | > 7.00 |  |  |  |
